Laboratory results taken from patent publication US9012431B2, “Boron-containing small molecules as anti-inflammatory agents” (Anacor Pharmaceuticals, Inc., priority 2008, dated 2015).
Read-outs that look alike come from different tables or passages of the source.

Experiments:
[1] = tested on: T1, PDE3 Cat; experiment: PDE3 inhibition; format: biochemical
T1 construct: Recombinant human PDE enzymes were expressed in a baculoviral system.; PDE isoforms tested include

[2] = tested on: T2, PDE4 partially purified from human U-937 myeloid leukemia cells; experiment: PDE4 Assay (enzyme from U-937 cells, [3H]cAMP); format: biochemical; conditions: PDE4 from U-937 cells, Tris buffer pH 7.5, 20 minutes at 25° C.
T2 construct: PDE4 partially purified from human U-937 myeloid leukemia cells was used

[3] = tested on: Sprague-Dawley rats; conditions: oral 30, 100, and 300 mg/kg/day, 14 consecutive days
[4] = tested on: Escherichia coli strain WP2 uvrA; experiment: Bacterial mutagenicity assay with/without Aroclor-induced S9 (E. coli); format: cell-based; conditions: up to 5000 μg per plate; presence or absence of Aroclor-induced S9 liver fraction
[5] = tested on: T3, phosphodiesterase 4 (PDE4) enzyme derived from human U937 cells; experiment: PDE4 enzyme activity (enzyme derived from human U937 cells); format: biochemical
T3 construct: PDE4 IC50; other: biochemical assay, PDE4 enzyme derived from human U937 cells; other: PDE4 in human U937 cells
Source text: The structure-activity relationships of novel boron-containing anti-inflammatory agents was investigated.
Compounds were screened by a biochemical assay against PDE4 enzyme and cell-based cytokine release assays using PBMCs stimulated by LPS or phytohemagglutinin (PHA).

[6] = molecular target: T4, PDE7A1 (Homo sapiens, UniProt Q13946); experiment: PDE7 inhibition; format: biochemical
T4 construct: made in house; host or cells: baculoviral expression system
T4 sequence (Q13946 whole entry): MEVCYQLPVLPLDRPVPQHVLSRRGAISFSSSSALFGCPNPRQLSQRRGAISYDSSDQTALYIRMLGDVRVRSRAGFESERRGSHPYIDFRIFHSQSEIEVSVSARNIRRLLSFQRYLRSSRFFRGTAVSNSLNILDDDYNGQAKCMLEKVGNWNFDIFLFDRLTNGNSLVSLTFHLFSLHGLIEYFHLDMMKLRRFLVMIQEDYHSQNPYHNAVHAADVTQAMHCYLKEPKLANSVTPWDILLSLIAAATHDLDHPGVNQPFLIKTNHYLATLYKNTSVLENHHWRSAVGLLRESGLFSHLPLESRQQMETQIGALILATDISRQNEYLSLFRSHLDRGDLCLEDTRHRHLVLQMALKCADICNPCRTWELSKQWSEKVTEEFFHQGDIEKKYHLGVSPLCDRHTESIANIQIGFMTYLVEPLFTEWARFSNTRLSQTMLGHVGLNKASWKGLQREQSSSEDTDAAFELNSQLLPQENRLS

N#Cc1ccc(Oc2ccc3c(c2)COB3O)cc1 [C17, 5-(4-cyanophenoxy)-1-hydroxy-1,3-dihydro-2,1-benzoxaborole]
inhibition of PDE3 [1]: does not significantly inhibit | IC50 ([1]; standard: Cilostazol): 1000 to 10000 nM | IC50 [2]: < 1000 nM | mortality, clinical pathology, microscopic or macroscopic changes [3]: No mortality, adverse effects on clinical pathology, or microscopic or macroscopic changes were observed in any dose group | mutagenic activity [4]: no mutagenic activity | IC50 ([5]; PDE4 in human U937 cells, read-out: PDE4 enzyme activity IC50): 490 nM | IC50 ([5]; biochemical assay, PDE4 enzyme derived from human U937 cells, read-out: PDE4 IC50): 490 nM | IC50 ([6]; read-out: PDE7 IC50): 730 nM | IC50 ([6]; standard: BRL-50481, read-out: IC50 PDE7A1): < 1000 nM
